In data set [1] the target is T1, human Edg-1(S1P1) (Homo sapiens, UniProt P21453).
T1 construct: expressed in transfected cells; host or cells: HEK-293
Description: Cell system binding test: inhibition of [3H]-S1P binding to Edg-1(S1P1) gene transferred HEK-293 cells. As to conditions: [3H]-S1P 10 nM.

Data set [2] deals with T1, human Edg-1(S1P1). Description: Membrane system binding test: inhibition of [33P]-S1P binding to the membrane fraction of Edg-1(S1P1) gene transferred HEK-293 cells. The conditions noted are these: [33P]-S1P 0.1 nM. The essentials: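 Membranes from HEK-293 cells transfected with Edg-1(S1P1) incubated 1 h at 30 °C with 0.1 nM [^33P]-S1P and compound at 10^−5 M (0.1% DMSO), pH 7.4 buffer with fatty acid-free BSA. Filter-bound radioactivity counted; inhibition rate calculated against no-compound binding, with untransfected-cell background subtracted.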

Setting [3] is: 10 μM compound, read-out: Cell system binding test % inhibition (10 μM).
Where [4] appears, read: 10 μM compound, membrane fraction of Edg-1(S1P1) gene transferred HEK-293 cells, read-out: Membrane system binding test % inhibition (10 μM).
Setting [5] is: test compound 10^-5 M, 1 hour, read-out: Edg-1(S1P1) binding inhibition rate (cell system binding test).
Setting [6] is: test compound 10^-5 M, 1 hour at 30° C., HEK-293 membrane fraction, read-out: Edg-1(S1P1) binding inhibition rate (membrane system binding test).

T1 sequence (P21453 whole entry): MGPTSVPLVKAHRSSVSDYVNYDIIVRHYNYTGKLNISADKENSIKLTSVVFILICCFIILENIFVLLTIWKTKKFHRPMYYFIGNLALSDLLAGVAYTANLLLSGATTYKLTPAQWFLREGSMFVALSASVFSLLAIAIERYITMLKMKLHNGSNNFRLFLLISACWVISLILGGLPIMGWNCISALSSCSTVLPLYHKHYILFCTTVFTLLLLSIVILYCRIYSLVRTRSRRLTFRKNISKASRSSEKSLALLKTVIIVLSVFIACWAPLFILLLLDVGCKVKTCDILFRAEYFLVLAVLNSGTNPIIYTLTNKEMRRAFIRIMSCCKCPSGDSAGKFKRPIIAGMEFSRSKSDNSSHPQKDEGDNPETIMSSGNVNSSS

For the compound `CCn1c(SC)nnc1[C@@H](C)NS(=O)(=O)c1ccc(Cl)cc1` [Compound 1, 4-chloro-N-{(1R)-1-[4-ethyl-5-(methylthio)-4H-1,2,4-triazol-3-yl]ethyl}benzenesulfonamide], the melting point was in the range of 176 to 177 °C. In data set [1] (setting [3]), the inhibition at 10 µM is 89.8%. The inhibition at 10 µM in data set [2] (setting [4]) came out at 72.3%.
Compound `CCn1c(S)nnc1[C@@H](C)NS(=O)(=O)c1ccc(Cl)cc1` [Compound 90, 4-chloro-N-[(1R)-1-(4-ethyl-5-mercapto-4H-1,2,4-triazol-3-yl)ethyl]benzenesulfonamide] gave a melting point of 169.5 to 172.5 °C. Also, the inhibition at 10 µM in data set [1] (setting [3]) came out at 60.6%. In data set [2] (setting [4]), the inhibition at 10 µM came out at 48.8%.
In turn, `CCn1c([C@@H](C)NS(=O)(=O)c2ccc(Cl)cc2)nnc1S(C)(=O)=O` [Compound 182, 4-Chloro-N-{(1R)-1-[4-ethyl-5-(methylsulfonyl)-4H-1,2,4-triazol-3-yl]ethyl}benzenesulfonamide] registered a melting point of 129 to 130 °C. Further, in data set [1] (setting [3]), the inhibition at 10 µM was 53.7%.
Take `CCn1c(OCC(F)(F)F)nnc1[C@@H](C)NS(=O)(=O)c1ccc(C)c(Cl)c1` [Compound 486]: the inhibition at 10 µM in data set [1] (setting [5]) is 99.5%; in data set [2] (setting [6]) it was 93.8%.
As to `CCn1c(OCC(F)(F)F)nnc1[C@@H](C)NS(=O)(=O)c1ccc(Br)c(F)c1` [Compound 487], the inhibition at 10 µM in data set [1] (setting [5]) stood at 99.6%; in data set [2] (setting [6]) it was 90.4%.
Taken in the same sequence, the figures for `CCn1c(OCC(F)(F)F)nnc1[C@@H](C)NS(=O)(=O)c1ccc(F)c(Cl)c1` [Compound 488] were 102% and 91.4%.
`CCn1c(OCC(F)(F)F)nnc1[C@@H](C)NS(=O)(=O)c1ccc(Br)c(C)c1` [Compound 489]: the inhibition at 10 µM in data set [1] (setting [5]) came to 103%; in data set [2] (setting [6]), 98.4%.
Taken in the same sequence, the figures for `CCn1c(OCC(F)(F)F)nnc1[C@@H](C)NS(=O)(=O)c1cc(F)c(F)c(F)c1` [Compound 490] were 101% and 88.9%.
Turning to `CCn1c(OCC(F)(F)F)nnc1[C@@H](C)NS(=O)(=O)c1cccc(Br)c1` [Compound 491], the inhibition at 10 µM came to 88.9% in data set [1] (setting [5]) and 75.7% in data set [2] (setting [6]).
The matching figures for `CCn1c(OCC(F)(F)F)nnc1[C@@H](C)NS(=O)(=O)c1ccc(Br)cc1` [Compound 492]: 104% and 87.9%.
Take `CCn1c(OCC(F)(F)F)nnc1[C@@H](C)NS(=O)(=O)c1ccc(C)c(C)c1` [Compound 493]: the inhibition at 10 µM came out at 105% in data set [1] (setting [5]) and 88.3% in data set [2] (setting [6]).
On to `CCn1c(OCC(F)(F)F)nnc1[C@@H](C)NS(=O)(=O)c1ccc(C)c(F)c1` [Compound 494], for which the values for the inhibition at 10 µM in data set [1] (setting [5]) and in data set [2] (setting [6]) were 102% and 87.1%, respectively.
The matching figures for `CCn1c(OCC(F)(F)F)nnc1[C@@H](C)NS(=O)(=O)c1ccc2ccccc2c1` [Compound 495]: 104% and 89.9%.
In the case of `CCn1c(OCC(F)(F)F)nnc1[C@@H](C)NS(=O)(=O)c1ccc(F)c(F)c1` [Compound 496], the inhibition at 10 µM in data set [1] (setting [5]) is 103%; in data set [2] (setting [6]), 75.7%.
`CCn1c(OCC(F)(F)F)nnc1[C@@H](C)NS(=O)(=O)c1cccc(OC(F)F)c1` [Compound 497]: the inhibition at 10 µM in data set [1] (setting [5]) stood at 102%; in data set [2] (setting [6]), 66.5%.
As for `CCn1c(OCC(F)(F)F)nnc1[C@@H](C)NS(=O)(=O)c1cccc(Cl)c1C` [Compound 498], the inhibition at 10 µM came to 104% in data set [1] (setting [5]) and 88.5% in data set [2] (setting [6]).
The matching figures for `CCn1c(OCC(F)(F)F)nnc1[C@@H](C)NS(=O)(=O)c1ccc2nsnc2c1` [Compound 499]: 107% and 89.1%.
On to `CCn1c(OCC(F)(F)F)nnc1[C@@H](C)NS(=O)(=O)c1ccc(C(F)(F)F)cc1` [Compound 500], for which the inhibition at 10 µM was determined as 103% in data set [1] (setting [5]) and 81.6% in data set [2] (setting [6]).
In the case of `CCn1c(OCC(F)(F)F)nnc1[C@@H](C)NS(=O)(=O)c1cc(F)cc(F)c1` [Compound 501], the values for the inhibition at 10 µM in data set [1] (setting [5]) and in data set [2] (setting [6]) were 102% and 55.4%, respectively.
Taken in the same sequence, the figures for `CCn1c(OCC(F)(F)F)nnc1[C@@H](C)NS(=O)(=O)c1ccc(Br)c(Br)c1` [Compound 502] were 108% and 86.3%.
With `CCn1c(OCC(F)(F)F)nnc1[C@@H](C)NS(=O)(=O)c1cccc(C(F)(F)F)c1` [Compound 503], the inhibition at 10 µM in data set [1] (setting [5]) turned out to be 104%; in data set [2] (setting [6]) it was 73.3%.
In the case of `CCn1c(OCC(F)(F)F)nnc1[C@@H](C)NS(=O)(=O)c1cccc(OC(F)(F)F)c1` [Compound 504], the figures for the inhibition at 10 µM in data set [1] (setting [5]) and in data set [2] (setting [6]) were 96.6% and 54%, respectively.
As to `CCn1c(OCC(F)(F)F)nnc1[C@@H](C)NS(=O)(=O)c1cccc(C)c1` [Compound 505], the inhibition at 10 µM in data set [1] (setting [5]) came to 103%; in data set [2] (setting [6]), 74.4%.
As to `CCn1c(OCC(F)(F)F)nnc1[C@@H](C)NS(=O)(=O)c1cc(Cl)c(Cl)s1` [Compound 510], the inhibition at 10 µM in data set [1] (setting [5]) was 106%; in data set [2] (setting [6]) it was 70.9%.
`CCn1c(OCC(F)(F)F)nnc1[C@@H](C)NS(=O)(=O)c1ccc(I)cc1` [Compound 511]: the inhibition at 10 µM in data set [1] (setting [5]) amounted to 99%; in data set [2] (setting [6]), 85.4%.
Taken in the same sequence, the figures for `CCn1c(OCC(F)(F)F)nnc1[C@@H](C)NS(=O)(=O)c1ccc(F)cc1` [Compound 512] were 105% and 71.5%.
For `CCn1c(OCC(F)(F)F)nnc1[C@@H](C)NS(=O)(=O)c1ccc(Br)c(C(F)(F)F)c1` [Compound 513], the inhibition at 10 µM in data set [1] (setting [5]) turned out to be 98.8%; in data set [2] (setting [6]), 55.2%.
As to `CCn1c(OCC(F)(F)F)nnc1[C@@H](C)NS(=O)(=O)c1cccc(Cl)c1` [Compound 514], the figures for the inhibition at 10 µM in data set [1] (setting [5]) and in data set [2] (setting [6]) were 98.4% and 86.7%, respectively.
For `CCc1ccc(S(=O)(=O)N[C@H](C)c2nnc(OCC(F)(F)F)n2CC)cc1` [Compound 515], the results for the inhibition at 10 µM in data set [1] (setting [5]) and in data set [2] (setting [6]) were 103% and 62.4%, respectively.
With `CCn1c(OCC(F)(F)F)nnc1[C@@H](C)NS(=O)(=O)c1cccc(OC)c1` [Compound 516], the inhibition at 10 µM was determined as 101% in data set [1] (setting [5]) and 61.9% in data set [2] (setting [6]).
With `CCn1c(OCC(F)(F)F)nnc1[C@@H](C)NS(=O)(=O)c1cc(F)c(Br)cc1F` [Compound 517], the inhibition at 10 µM in data set [1] (setting [5]) is 93.7%; in data set [2] (setting [6]), 42.7%.
In the case of `CCCn1c(OC)nnc1[C@@H](C)NS(=O)(=O)c1ccc(Cl)cc1` [Compound 541], the results for the inhibition at 10 µM in data set [1] (setting [5]) and in data set [2] (setting [6]) were 97.1% and 75.8%, respectively.
In the case of `COc1nnc([C@@H](C)NS(=O)(=O)c2ccc(Cl)cc2)n1C(C)C` [Compound 542], the results for the inhibition at 10 µM in data set [1] (setting [5]) and in data set [2] (setting [6]) were 99.9% and 92.3%, respectively.
Regarding `COc1nnc([C@@H](C)NS(=O)(=O)c2ccc(Cl)cc2)n1C1CC1` [Compound 543], the figures for the inhibition at 10 µM in data set [1] (setting [5]) and in data set [2] (setting [6]) were 93.1% and 101%, respectively.
As for `CCCCn1c(OC)nnc1[C@@H](C)NS(=O)(=O)c1ccc(Cl)cc1` [Compound 544], the inhibition at 10 µM was 47.5% in data set [1] (setting [5]) and 100% in data set [2] (setting [6]).

The values are drawn from patent US8022225B2, “Triazole derivative” (Taisho Pharmaceutical Co., Ltd, priority 2004, dated 2011).
